Reference: patent publication US20220363686A1 (AiCuris GmbH & Co. KG, priority 2018, published 2022)

Tests used:
[1] = target: HBV core protein (C-terminal truncated core protein containing 149 amino acids of the N-terminal assembly domain) (UniProt P03146); experiment: Biochemical capsid assembly assay (fluorescence quenching); design: rows headed: Assembly Activity; other: BODIPY-FL labelled core protein, assembly started with NaCl, read after 6 min; settings: read-out: Assembly Activity; BODIPY-FL labelled core protein, assembly started with NaCl, read after 6 min
HBV core protein (C-terminal truncated core protein containing 149 amino acids of the N-terminal assembly domain), sequence (P03146 whole entry, the tested form may be a part): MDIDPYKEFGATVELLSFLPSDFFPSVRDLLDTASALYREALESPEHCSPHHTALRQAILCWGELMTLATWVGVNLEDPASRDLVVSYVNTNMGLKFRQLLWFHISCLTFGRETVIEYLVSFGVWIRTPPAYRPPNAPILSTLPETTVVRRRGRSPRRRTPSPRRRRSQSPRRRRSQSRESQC
Method in brief: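 N-terminal assembly domain (residues 1–149) plus C-terminal Cys150, E. coli-expressed, BODIPY-FL-maleimide labelled, used at 1.0–2.0 μM in 50 mM HEPES pH 7.5 with 0.5% DMSO. Assembly started with NaCl ([…]); fluorescence quenching (ex 477/em 525 nm) read after 6 min. 8-point compound series; EC50 by non-linear regression.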

[2] = Cell viability assay (AlamarBlue); settings: human, HepAD38 cells
[3] = tested on: HBV; experiment: Determination of HBV DNA from the supernatants of HepAD38 cells (anti-HBV activity); format: cell-based, hepatitis B virus; settings: Hepatitis B virus, HePAD38, 144 h, HBV DNA in HepAD38 supernatant, day 6, qPCR; read-out: Cell Activity
Method in brief: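 EC50 derived by non-linear regression of relative HBV DNA copy numbers, measured by qPCR (plasmid standards) in day-6 filtered supernatants. Before this, HepAD38 cells were exposed to serial half-log compound dilutions without tetracycline, releasing viral expression; cultures kept at 37 °C, 5% CO2.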

Row | SMILES | IC50 [1] | CC50 at 6 days [2] | EC50 [3]
1 | CN(C(=O)c1cnn2c1CN(C(=O)c1cc3c(Cl)c(F)ccc3[nH]1)CC2)C1(CO)CC1 [Example 96, 5-(4-chloro-5-fluoro-1H-indole-2-carbonyl)-N-[1-(hydroxymethyl)cyclopropyl]-N-methyl-4H,5H,6H,7H-pyrazolo[1,5-a]pyrazine-3-carboxamide] | < 5 µM | > 10 µM | < 1 µM
2 | C[C@@H](NC(=O)c1cnn2c1CN(C(=O)c1cc3cc(Cl)c(F)cc3[nH]1)CC2)C(F)(F)F [Example 116, 5-(5-chloro-6-fluoro-1H-indole-2-carbonyl)-N-[(2R)-1,1,1-trifluoropropan-2-yl]-4H,5H,6H,7H-pyrazolo[1,5-a]pyrazine-3-carboxamide] | < 5 µM | > 10 µM | < 1 µM
3 | CN(C(=O)c1cnn2c1CN(C(=O)c1cc3ccccc3[nH]1)CC2)C1(c2ncccn2)CC1 [Example 47, 5-(1H-indole-2-carbonyl)-N-methyl-N-[1-(pyrimidin-2-yl)cyclopropyl]-4H,5H,6H,7H-pyrazolo[1,5-a]pyrazine-3-carboxamide] | < 5 µM | > 10 µM | < 1 µM
4 | CN(C(=O)c1cnn2c1CN(C(=O)c1cc3ccccc3[nH]1)CC2)C1(c2ccc(CO)cc2)CC1 [Example 91, N-{1-[4-(hydroxymethyl)phenyl]cyclopropyl}-5-(1H-indole-2-carbonyl)-N-methyl-4H,5H,6H,7H-pyrazolo[1,5-a]pyrazine-3-carboxamide] | < 5 µM | > 10 µM | < 1 µM
5 | Cc1cc(F)cc2[nH]c(C(=O)N3CCn4ncc(C(=O)N5CCC(O)CC56CC6)c4C3)cc12 (stereo not drawn) [Example 121, 4-[5-(6-fluoro-4-methyl-1H-indole-2-carbonyl)-4H,5H,6H,7H-pyrazolo[1,5-a]pyrazine-3-carbonyl]-4-azaspiro[2.5]octan-7-ol] | < 5 µM | > 10 µM | < 1 µM
6 | CC1Cn2ncc(C(=O)NC3(COC(F)F)CC3)c2CN1C(=O)c1cc2ccccc2[nH]1 (racemic) [Example 130, N-{1-[(difluoromethoxy)methyl]cyclopropyl}-5-(1H-indole-2-carbonyl)-6-methyl-4H,5H,6H,7H-pyrazolo[1,5-a]pyrazine-3-carboxamide] | < 5 µM | > 10 µM | < 1 µM
7 | CC1Cn2ncc(C(=O)N[C@H](C)C(F)(F)F)c2CN1C(=O)c1cc2ccccc2[nH]1 (stereo partly drawn) [Example 142, 5-(1H-indole-2-carbonyl)-6-methyl-N-[(2R)-1,1,1-trifluoropropan-2-yl]-4H,5H,6H,7H-pyrazolo[1,5-a]pyrazine-3-carboxamide] | < 5 µM | > 10 µM | < 1 µM
8 | O=C(NC1(COC(F)F)CC1)c1cnn2c1CN(C(=O)c1cc3c(F)c(F)ccc3[nH]1)CC2 [Example 104, 5-(4,5-difluoro-1H-indole-2-carbonyl)-N-{1-[(difluoromethoxy)methyl]cyclopropyl}-4H,5H,6H,7H-pyrazolo[1,5-a]pyrazine-3-carboxamide] | < 5 µM | > 10 µM | < 1 µM
9 | CC1Cn2ncc(C(=O)N(C)C3(COC(F)F)CC3)c2CN1C(=O)c1cc2ccccc2[nH]1 (stereo not drawn) [Example 20, N-{1-[(difluoromethoxy)methyl]cyclopropyl}-5-(1H-indole-2-carbonyl)-N,6-dimethyl-4H,5H,6H,7H-pyrazolo[1,5-a]pyrazine-3-carboxamide] | < 5 µM | > 10 µM | < 1 µM
10 | O=C(c1cc2c(F)c(F)ccc2[nH]1)N1CCn2ncc(C(=O)N3CCC(O)CC34CC4)c2C1 (stereo not drawn) [Example 119, 4-[5-(4,5-difluoro-1H-indole-2-carbonyl)-4H,5H,6H,7H-pyrazolo[1,5-a]pyrazine-3-carbonyl]-4-azaspiro[2.5]octan-7-ol] | < 5 µM | > 10 µM | < 1 µM
11 | CN(C(=O)c1cnn2c1CN(C(=O)c1cc3c(Cl)cccc3[nH]1)CC2)C1(CO)CC1 [Example 13, 5-(4-chloro-1H-indole-2-carbonyl)-N-[1-(hydroxymethyl)cyclopropyl]-N-methyl-4H,5H,6H,7H-pyrazolo[1,5-a]pyrazine-3-carboxamide] | < 5 µM | > 10 µM | < 1 µM
12 | O=C(c1cc2cc(Cl)c(F)cc2[nH]1)N1CCn2ncc(C(=O)N3CCCOCC34CC4)c2C1 [Example 111, 4-[5-(5-chloro-6-fluoro-1H-indole-2-carbonyl)-4H,5H,6H,7H-pyrazolo[1,5-a]pyrazine-3-carbonyl]-8-oxa-4-azaspiro[2.6]nonane] | < 5 µM | > 10 µM | < 1 µM
13 | CN(CCO)C(=O)c1cnn2c1CN(C(=O)c1cc3c(Cl)cccc3[nH]1)CC2 [Example 52, 5-(4-chloro-1H-indole-2-carbonyl)-N-(2-hydroxyethyl)-N-methyl-4H,5H,6H,7H-pyrazolo[1,5-a]pyrazine-3-carboxamide] | < 5 µM | > 10 µM | < 1 µM
